# Experimental data reported in patent EP3138561A1 (priority 2014, dated 2015).
# Read-outs that look alike come from different tables or passages of the source.
# Legend:
# [1] = system: Burkholderia cepacia; type: cell-based
# [2] = system: Burkholderia mallei; type: cell-based
# [3] = system: Burkholderia pseudomallei; type: cell-based
# [4] = system: Burkholderia cenocepacia; type: cell-based
# [5] = system: Burkholderia multivorans; type: cell-based
# [6] = system: Burkholderia vietnamiensis; type: cell-based
# [7] = system: Burkholderia dolosa; type: cell-based
# [8] = system: Burkholderia stabilis; type: cell-based
# [9] = system: Burkholderia ambifaria; type: cell-based
# [10] = system: Burkholderia anthina; type: cell-based
# [11] = system: Burkholderia pyrrocinia; type: cell-based
# [12] = system: Burkholderia gladioli; type: cell-based
# [13] = system: bacteria of the Burkholderia genus; type: cell-based; details: all species of bacteria of the Burkholderia genus
# [14] = system: Burkholderia cepacia; details: 0.02% solution
# [15] = system: Pseudomonas aeruginosa; details: all three groups of patients; day 10 of therapy
# [16] = white crystalline powder; cited from earlier work
structure (smiles),measurement,setting,value
N=C(NCCCCCCNC(=N)NC(=N)Nc1ccc(Cl)cc1)NC(=N)Nc1ccc(Cl)cc1 [chlorhexidine bigluconate],activity,"[1]; Concentration 0,2%",+
same,activity,[1]; Concentration 0.02%,-
same,activity,[1]; Concentration 0.05%,-
same,activity,[1]; Concentration 0.1%,+
same,activity,"[2]; Concentration 0,2%",+
same,activity,[2]; Concentration 0.02%,-
same,activity,[2]; Concentration 0.05%,-
same,activity,[2]; Concentration 0.1%,+
same,activity,"[3]; Concentration 0,2%",+
same,activity,[3]; Concentration 0.02%,-
same,activity,[3]; Concentration 0.05%,-
same,activity,[3]; Concentration 0.1%,+
same,activity,"[4]; Concentration 0,2%",+
same,activity,[4]; Concentration 0.02%,+
same,activity,[4]; Concentration 0.05%,+
same,activity,[4]; Concentration 0.1%,+
same,activity,"[5]; Concentration 0,2%",++
same,activity,[5]; Concentration 0.02%,+
same,activity,[5]; Concentration 0.05%,+
same,activity,[5]; Concentration 0.1%,++
same,activity,"[6]; Concentration 0,2%",+
same,activity,[6]; Concentration 0.02%,-
same,activity,[6]; Concentration 0.05%,+
same,activity,[6]; Concentration 0.1%,+
same,activity,"[7]; Concentration 0,2%",++
same,activity,[7]; Concentration 0.02%,+
same,activity,[7]; Concentration 0.05%,+
same,activity,[7]; Concentration 0.1%,++
same,activity,"[8]; Concentration 0,2%",+
same,activity,[8]; Concentration 0.02%,+
same,activity,[8]; Concentration 0.05%,+
same,activity,[8]; Concentration 0.1%,+
same,activity,"[9]; Concentration 0,2%",+
same,activity,[9]; Concentration 0.02%,-
same,activity,[9]; Concentration 0.05%,-
same,activity,[9]; Concentration 0.1%,+
same,activity,"[10]; Concentration 0,2%",+
same,activity,[10]; Concentration 0.02%,-
same,activity,[10]; Concentration 0.05%,-
same,activity,[10]; Concentration 0.1%,+
same,activity,"[11]; Concentration 0,2%",+
same,activity,[11]; Concentration 0.02%,-
same,activity,[11]; Concentration 0.05%,-
same,activity,[11]; Concentration 0.1%,+
same,activity,"[12]; Concentration 0,2%",++
same,activity,[12]; Concentration 0.02%,+
same,activity,[12]; Concentration 0.05%,+
same,activity,[12]; Concentration 0.1%,+
"CC1CCC(C(C)C)C(OC(=O)C[N+](C)(C)CCCCCCCCCC[N+](C)(C)CC(=O)OC2CC(C)CCC2C(C)C)C1 (stereo not drawn) [decamethoxine, 1,10-decamethylene-bis(N,N-dimethyl-menthoxycarbonylmethyl)ammonium dichloride]",activity,"[1]; Concentration 0,2%",+++
same,activity,[1]; Concentration 0.02%,+
same,activity,[1]; Concentration 0.05%,++
same,activity,[1]; Concentration 0.1%,+++
same,activity,"[2]; Concentration 0,2%",+++
same,activity,[2]; Concentration 0.02%,+
same,activity,[2]; Concentration 0.05%,++
same,activity,[2]; Concentration 0.1%,+++
same,activity,"[3]; Concentration 0,2%",+++
same,activity,[3]; Concentration 0.02%,+
same,activity,[3]; Concentration 0.05%,++
same,activity,[3]; Concentration 0.1%,+++
same,activity,"[4]; Concentration 0,2%",+++
same,activity,[4]; Concentration 0.02%,+
same,activity,[4]; Concentration 0.05%,++
same,activity,[4]; Concentration 0.1%,+++
same,activity,"[5]; Concentration 0,2%",+++
same,activity,[5]; Concentration 0.02%,+
same,activity,[5]; Concentration 0.05%,++
same,activity,[5]; Concentration 0.1%,+++
same,activity,"[6]; Concentration 0,2%",+++
same,activity,[6]; Concentration 0.02%,+
same,activity,[6]; Concentration 0.05%,++
same,activity,[6]; Concentration 0.1%,+++
same,activity,"[7]; Concentration 0,2%",+++
same,activity,[7]; Concentration 0.02%,+
same,activity,[7]; Concentration 0.05%,++
same,activity,[7]; Concentration 0.1%,+++
same,activity,"[8]; Concentration 0,2%",+++
same,activity,[8]; Concentration 0.02%,+
same,activity,[8]; Concentration 0.05%,++
same,activity,[8]; Concentration 0.1%,+++
same,activity,"[9]; Concentration 0,2%",+++
same,activity,[9]; Concentration 0.02%,+
same,activity,[9]; Concentration 0.05%,++
same,activity,[9]; Concentration 0.1%,+++
same,activity,"[10]; Concentration 0,2%",+++
same,activity,[10]; Concentration 0.02%,+
same,activity,[10]; Concentration 0.05%,++
same,activity,[10]; Concentration 0.1%,+++
same,activity,"[11]; Concentration 0,2%",+++
same,activity,[11]; Concentration 0.02%,+
same,activity,[11]; Concentration 0.05%,++
same,activity,[11]; Concentration 0.1%,+++
same,activity,"[12]; Concentration 0,2%",+++
same,activity,[12]; Concentration 0.02%,+
same,activity,[12]; Concentration 0.05%,++
same,activity,[12]; Concentration 0.1%,+++
same,bactericidal activity,[13],exhibits bactericidal activity
same,Mean therapy time,[14]; ultrasonic inhalations,7 days
same,negative side effects making withdrawal necessary,[14]; ultrasonic inhalations,No patients had negative side effects
same,patients with positive effect after decamethoxine therapy,[14]; ultrasonic inhalations,41%
same,patients with body temperature normalized,"[14]; ultrasonic inhalations 5-20 ml 1-2 times daily, days 3-5",75%
same,tolerance to the therapy,"[14]; ultrasonic inhalations, all patients",Good tolerance
same,patients with persistent cough,"[14]; ultrasonic inhalations, days 3-5, character changed from ""strong"" to ""moderate"" or ""weak""",75%
same,patients in whom dyspnea persisted,"[14]; ultrasonic inhalations, days 3-5, characterized as ""insignificant""",30%
same,patients complaining of moderate cough,"[14]; ultrasonic inhalations, days 7-10",14%
same,cases in which fine moist rales were heard,"[14]; ultrasonic inhalations, physical examination",43%
same,"clinical outcome (clinical, laboratory and functional indices)",[15],the patients were cured
same,solubility in water,[16],readily soluble in water
